Values of other authors in patent publication US20080044439A1, “Compositions and Methods for Preventing and Treating Skin and Hair Conditions” (priority 2004, published 2008).

Tested on: albino guinea pigs

With `CC(C)Cn1cnc2c(N)nc3ccccc3c21` [imiquimod] as the compound, how does the “fading the tattoo, macroscopically and histologically” value (5 percent cream applied every 6 hours for seven days, evaluated at seven and 28 days after tattoo placement, compared with petrolatum, tretinoin 0.025 percent, tretinoin alternated with imiquimod) read?
Its value is “most effective regimen for fading the tattoo”.

What about the “biopsy evaluation of the treated site” value (guinea pig, in vivo) of the same compound?
The value was “epidermal and dermal necrosis with separation, severe inflammation and fibrosis, and disruption of the skin appendages”.
